Experimental data published in ChEMBL document CHEMBL5042492, “Noncovalent CDK12/13 dual inhibitors-based PROTACs degrade CDK12-Cyclin K complex and induce synthetic lethality with PARP inhibitor” (Eur J Med Chem, 2022).
Calls of active or inactive are those of the source. The rule behind the calls is not given here.

Tests used:
CDK12/Cyclin K = CDK12/Cyclin K (Homo sapiens, UniProt Q9NYV4); assay: Inhibition of human CDK12 (696 to 1082 residues) /cyclinK (1 to 300 residues) using ac-YSPTSPpSYSPTSFpS-YSPTSPpSY-[PEG2]-RR-amid peptide as substrate in presence of ATP measured after 2 hrs by ADP-Glo kinase assay; type: protein-complex assay
[1] = molecular target: T1, Protein cereblon/Cyclin-K/Cyclin-dependent kinase 12 (Homo sapiens, UniProt O75909+Q9NYV4+Q96SW2); assay: Protac activity at human CRBN/CDK12/CycK in human MDA-MB-231 cells assessed as degradation of CDK12 at 3 uM measured after 24 hrs by Western blotting assay; type: cell-based
[2] = molecular target: T1, Protein cereblon/Cyclin-K/Cyclin-dependent kinase 12; assay: Protac activity at human CRBN/CDK12/CycK in human Bel-7402 cells assessed as degradation of CDK12 measured after 24 hrs by Western blotting assay; type: cell-based
Target sequence in this assay (O75909 whole entry): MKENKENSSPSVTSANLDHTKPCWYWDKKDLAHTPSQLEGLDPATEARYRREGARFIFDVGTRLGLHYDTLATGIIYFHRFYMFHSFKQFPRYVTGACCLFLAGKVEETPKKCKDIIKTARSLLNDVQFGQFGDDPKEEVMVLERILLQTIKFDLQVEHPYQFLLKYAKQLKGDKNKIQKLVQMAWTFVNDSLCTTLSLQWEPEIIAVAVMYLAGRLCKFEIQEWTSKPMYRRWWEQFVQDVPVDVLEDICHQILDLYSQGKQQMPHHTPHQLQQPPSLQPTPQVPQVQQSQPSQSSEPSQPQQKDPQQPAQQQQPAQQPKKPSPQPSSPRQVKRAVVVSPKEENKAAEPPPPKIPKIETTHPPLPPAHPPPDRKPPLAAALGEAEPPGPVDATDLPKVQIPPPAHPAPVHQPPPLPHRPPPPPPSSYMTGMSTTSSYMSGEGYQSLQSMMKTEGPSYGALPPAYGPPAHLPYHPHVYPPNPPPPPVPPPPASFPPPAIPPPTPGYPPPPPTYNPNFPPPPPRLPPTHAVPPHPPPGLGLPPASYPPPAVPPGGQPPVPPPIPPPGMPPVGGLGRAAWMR
Target sequence in this assay (Q9NYV4 whole entry): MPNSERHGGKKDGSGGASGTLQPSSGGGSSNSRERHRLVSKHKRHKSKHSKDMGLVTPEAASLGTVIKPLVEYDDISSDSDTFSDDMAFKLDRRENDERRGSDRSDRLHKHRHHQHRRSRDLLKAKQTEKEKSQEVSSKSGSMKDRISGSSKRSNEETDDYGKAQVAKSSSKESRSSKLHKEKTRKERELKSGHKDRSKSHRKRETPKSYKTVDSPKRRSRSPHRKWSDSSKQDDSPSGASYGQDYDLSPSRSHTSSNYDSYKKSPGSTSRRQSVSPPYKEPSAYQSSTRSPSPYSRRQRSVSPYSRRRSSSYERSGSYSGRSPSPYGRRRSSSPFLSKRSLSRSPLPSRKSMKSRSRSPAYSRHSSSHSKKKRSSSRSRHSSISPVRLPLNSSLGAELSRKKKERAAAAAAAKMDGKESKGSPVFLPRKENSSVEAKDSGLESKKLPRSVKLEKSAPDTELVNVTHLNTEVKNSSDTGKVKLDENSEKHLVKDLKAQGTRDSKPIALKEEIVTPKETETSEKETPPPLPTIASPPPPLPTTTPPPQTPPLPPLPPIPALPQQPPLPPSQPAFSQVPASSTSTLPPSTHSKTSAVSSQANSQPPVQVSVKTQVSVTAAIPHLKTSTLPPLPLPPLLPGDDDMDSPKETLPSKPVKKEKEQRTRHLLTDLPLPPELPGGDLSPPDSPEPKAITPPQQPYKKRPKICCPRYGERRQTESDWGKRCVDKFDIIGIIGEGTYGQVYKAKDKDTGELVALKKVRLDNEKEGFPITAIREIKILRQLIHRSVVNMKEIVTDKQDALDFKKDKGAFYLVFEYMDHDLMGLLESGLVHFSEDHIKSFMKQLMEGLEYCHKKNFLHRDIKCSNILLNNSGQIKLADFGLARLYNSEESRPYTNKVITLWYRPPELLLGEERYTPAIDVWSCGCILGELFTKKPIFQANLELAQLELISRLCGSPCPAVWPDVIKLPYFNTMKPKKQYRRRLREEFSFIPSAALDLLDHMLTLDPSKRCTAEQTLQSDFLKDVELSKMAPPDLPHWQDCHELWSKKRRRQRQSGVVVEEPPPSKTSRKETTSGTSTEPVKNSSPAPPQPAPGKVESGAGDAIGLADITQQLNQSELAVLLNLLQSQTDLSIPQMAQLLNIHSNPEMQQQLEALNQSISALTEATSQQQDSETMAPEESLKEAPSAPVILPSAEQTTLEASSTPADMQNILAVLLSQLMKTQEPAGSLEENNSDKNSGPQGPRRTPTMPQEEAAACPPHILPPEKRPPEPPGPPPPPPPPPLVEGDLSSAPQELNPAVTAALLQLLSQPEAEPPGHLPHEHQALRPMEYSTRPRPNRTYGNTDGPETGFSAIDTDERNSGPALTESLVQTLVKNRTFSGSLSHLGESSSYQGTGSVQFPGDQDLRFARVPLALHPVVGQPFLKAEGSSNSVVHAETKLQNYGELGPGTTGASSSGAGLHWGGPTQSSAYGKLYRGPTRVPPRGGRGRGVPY
Target sequence in this assay (Q96SW2 whole entry): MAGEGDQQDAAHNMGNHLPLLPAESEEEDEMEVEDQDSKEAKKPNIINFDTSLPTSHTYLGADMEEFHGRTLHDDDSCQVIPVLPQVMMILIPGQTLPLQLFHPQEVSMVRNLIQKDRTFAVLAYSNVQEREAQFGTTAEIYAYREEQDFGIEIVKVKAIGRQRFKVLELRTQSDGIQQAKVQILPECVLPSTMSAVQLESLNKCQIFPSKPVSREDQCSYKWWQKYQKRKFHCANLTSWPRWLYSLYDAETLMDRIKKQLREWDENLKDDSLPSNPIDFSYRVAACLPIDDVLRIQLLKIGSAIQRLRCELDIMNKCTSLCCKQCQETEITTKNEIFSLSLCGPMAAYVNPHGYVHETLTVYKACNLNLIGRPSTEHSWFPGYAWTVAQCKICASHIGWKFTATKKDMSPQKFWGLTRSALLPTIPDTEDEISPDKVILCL

[3] = molecular target: T1, Protein cereblon/Cyclin-K/Cyclin-dependent kinase 12; assay: Protac activity at human CRBN/CDK12/CycK in human Bel-7402 cells assessed as degradation of CycK measured after 24 hrs by Western blotting assay; type: cell-based
Target sequence in this assay (O75909 whole entry): as the sequence (O75909 whole entry) above
Target sequence in this assay (Q9NYV4 whole entry): as the sequence (Q9NYV4 whole entry) above
Target sequence in this assay (Q96SW2 whole entry): as the sequence (Q96SW2 whole entry) above

[4] = molecular target: T1, Protein cereblon/Cyclin-K/Cyclin-dependent kinase 12; assay: Protac activity at human CRBN/CDK12/CycK in human MDA-MB-231 cells assessed as degradation of CDK12 measured after 24 hrs by Western blotting assay; type: cell-based
Target sequence in this assay (O75909 whole entry): as the sequence (O75909 whole entry) above
Target sequence in this assay (Q9NYV4 whole entry): as the sequence (Q9NYV4 whole entry) above
Target sequence in this assay (Q96SW2 whole entry): as the sequence (Q96SW2 whole entry) above

[5] = molecular target: T1, Protein cereblon/Cyclin-K/Cyclin-dependent kinase 12; assay: Protac activity at human CRBN/CDK12/CycK in human MDA-MB-231 cells assessed as degradation of CycK measured after 24 hrs by Western blotting assay; type: cell-based
Target sequence in this assay (O75909 whole entry): as the sequence (O75909 whole entry) above
Target sequence in this assay (Q9NYV4 whole entry): as the sequence (Q9NYV4 whole entry) above
Target sequence in this assay (Q96SW2 whole entry): as the sequence (Q96SW2 whole entry) above

[6] = molecular target: T1, Protein cereblon/Cyclin-K/Cyclin-dependent kinase 12; assay: Protac activity at human CRBN/CDK12/CycK in human Bel-7402 cells assessed as degradation of CDK9 upto 30 uM measured after 24 hrs by Western blotting assay; type: cell-based; settings: dose microM <=30, time 24.0 hrs
[7] = molecular target: T1, Protein cereblon/Cyclin-K/Cyclin-dependent kinase 12; assay: Protac activity at human CRBN/CDK12/CycK in human Bel-7402 cells assessed as RNAP2 CTD Ser2 phosphorylation level at 0.1 to 30 uM measured after 24 hrs by Western blotting assay; type: cell-based; settings: dose 0.1-30 µM
[8] = molecular target: T1, Protein cereblon/Cyclin-K/Cyclin-dependent kinase 12; assay: Protac activity at human CRBN/CDK12/CycK in human MDA-MB-231 cells assessed as RNAP2 CTD Ser2 phosphorylation level at 0.1 to 30 uM measured after 24 hrs by Western blotting assay; type: cell-based; settings: dose 0.1-30 µM
[9] = molecular target: T1, Protein cereblon/Cyclin-K/Cyclin-dependent kinase 12; assay: Protac activity at human CRBN/CDK12/CycK in human MDA-MB-231(CRBN/KO) cells assessed as degradation of CDK12 measured after 24 hrs by Western blotting assay; type: cell-based
[10] = molecular target: T1, Protein cereblon/Cyclin-K/Cyclin-dependent kinase 12; assay: Protac activity at human CRBN/CDK12/CycK in human MDA-MB-231 cells assessed as downregulation of ATM measured after 6 hrs by RT-qPCR method; type: cell-based
[11] = molecular target: T1, Protein cereblon/Cyclin-K/Cyclin-dependent kinase 12; assay: Protac activity at human CRBN/CDK12/CycK in human MDA-MB-231 cells assessed as downregulation of ATR measured after 6 hrs by RT-qPCR method; type: cell-based
MDA-MB-231 [12] = assay: Synergistic antiproliferative activity against human MDA-MB-231 cells in presence of 1 uM of Olaparib at 1 uM for 10 days by SRB staining based clone formation assay relative to control; type: functional; settings: MDA-MB-231, 240 h, time 10 day
MDA-MB-231 [13] = assay: Synergistic antiproliferative activity against human MDA-MB-231 cells in presence of 1 uM of Olaparib at 3 uM measured after 10 days by SRB staining based clone formation assay relative to control; type: functional; settings: MDA-MB-231, 240 h, time 10 day
MDA-MB-231 [14] = assay: Synergistic antiproliferative activity against human MDA-MB-231 cells in presence of 1 uM of Olaparib at 1 uM for 10 days by Chou-Talalay method; type: functional; settings: time 10 day
MDA-MB-231 [15] = assay: Synergistic antiproliferative activity against human MDA-MB-231 cells in presence of 1 uM of Olaparib at 3 uM measured after 10 days by Chou-Talalay method; type: functional; settings: time 10 day
[16] = molecular target: Protein cereblon/Cyclin-dependent kinase 13 (Homo sapiens) (UniProt Q14004+Q96SW2); assay: Protac activity at human CRBN/CDK13 in human MDA-MB-231 cells assessed as degradation of CDK13 at 0.1 to 30 uM measured after 24 hrs by Western blotting assay; type: cell-based; settings: dose 0.1-30 µM
Chain of Protein cereblon/Cyclin-dependent kinase 13 (Homo sapiens) (Q14004 whole entry, looked up): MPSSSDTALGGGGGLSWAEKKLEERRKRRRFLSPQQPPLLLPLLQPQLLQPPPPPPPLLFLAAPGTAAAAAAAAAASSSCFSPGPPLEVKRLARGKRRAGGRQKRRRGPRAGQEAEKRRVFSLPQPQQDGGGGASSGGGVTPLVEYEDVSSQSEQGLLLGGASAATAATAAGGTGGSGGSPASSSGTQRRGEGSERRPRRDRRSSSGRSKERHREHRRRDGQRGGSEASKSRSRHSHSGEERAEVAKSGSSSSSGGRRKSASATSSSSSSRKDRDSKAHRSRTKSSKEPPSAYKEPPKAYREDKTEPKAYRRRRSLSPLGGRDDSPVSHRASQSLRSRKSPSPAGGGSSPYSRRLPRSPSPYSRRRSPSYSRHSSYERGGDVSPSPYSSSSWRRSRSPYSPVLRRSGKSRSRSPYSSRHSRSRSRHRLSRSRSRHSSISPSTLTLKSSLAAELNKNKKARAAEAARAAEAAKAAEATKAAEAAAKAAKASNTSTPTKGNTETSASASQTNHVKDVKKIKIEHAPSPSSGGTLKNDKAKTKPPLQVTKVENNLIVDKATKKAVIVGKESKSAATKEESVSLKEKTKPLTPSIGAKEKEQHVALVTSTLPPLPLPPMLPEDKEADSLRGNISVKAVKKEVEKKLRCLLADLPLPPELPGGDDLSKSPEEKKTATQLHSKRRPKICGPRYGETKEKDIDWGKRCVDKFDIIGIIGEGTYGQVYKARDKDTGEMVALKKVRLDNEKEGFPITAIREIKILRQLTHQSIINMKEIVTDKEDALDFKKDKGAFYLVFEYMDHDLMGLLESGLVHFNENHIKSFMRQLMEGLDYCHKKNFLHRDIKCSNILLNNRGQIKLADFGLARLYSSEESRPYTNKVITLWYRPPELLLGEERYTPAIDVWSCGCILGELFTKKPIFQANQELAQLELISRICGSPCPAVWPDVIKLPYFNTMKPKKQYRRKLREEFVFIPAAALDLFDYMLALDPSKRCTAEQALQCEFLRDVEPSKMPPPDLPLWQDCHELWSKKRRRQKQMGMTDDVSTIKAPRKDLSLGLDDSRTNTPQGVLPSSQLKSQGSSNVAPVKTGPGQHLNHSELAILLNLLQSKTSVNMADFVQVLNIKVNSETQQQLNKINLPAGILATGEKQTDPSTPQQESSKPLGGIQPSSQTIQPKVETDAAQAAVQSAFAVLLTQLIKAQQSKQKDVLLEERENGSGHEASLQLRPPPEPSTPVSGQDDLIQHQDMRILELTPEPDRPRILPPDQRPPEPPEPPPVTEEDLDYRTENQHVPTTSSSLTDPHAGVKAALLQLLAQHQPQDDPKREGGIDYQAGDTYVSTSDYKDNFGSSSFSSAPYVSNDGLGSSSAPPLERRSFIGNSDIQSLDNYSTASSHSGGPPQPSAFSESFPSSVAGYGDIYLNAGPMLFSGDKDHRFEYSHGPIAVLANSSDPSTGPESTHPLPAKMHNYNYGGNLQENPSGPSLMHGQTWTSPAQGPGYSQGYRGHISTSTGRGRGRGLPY
Chain of Protein cereblon/Cyclin-dependent kinase 13 (Homo sapiens) (Q96SW2 whole entry, looked up): as the sequence (Q96SW2 whole entry) above

[17] = molecular target: T1, Protein cereblon/Cyclin-K/Cyclin-dependent kinase 12; assay: Protac activity at human CRBN/CDK12/CycK in human MDA-MB-231 cells assessed as degradation of Cyclin H up to 30 uM measured after 24 hrs by Western blotting assay; type: cell-based; settings: dose microM <=30, time 24.0 hrs
[18] = molecular target: T1, Protein cereblon/Cyclin-K/Cyclin-dependent kinase 12; assay: Protac activity at human CRBN/CDK12/CycK in human Bel-7402 cells assessed as degradation of Cyclin T1 upto 30 uM measured after 24 hrs by Western blotting assay; type: cell-based; settings: dose microM <=30, time 24.0 hrs
[19] = molecular target: T1, Protein cereblon/Cyclin-K/Cyclin-dependent kinase 12; assay: Protac activity at human CRBN/CDK12/CycK in human MDA-MB-231 cells assessed as degradation of Cyclin T1 up to 30 uM measured after 24 hrs by Western blotting assay; type: cell-based; settings: dose microM <=30, time 24.0 hrs
[20] = molecular target: T1, Protein cereblon/Cyclin-K/Cyclin-dependent kinase 12; assay: Protac activity at human CRBN/CDK12/CycK in human Bel-7402 cells assessed as degradation of CK1alpha upto 30 uM measured after 24 hrs by Western blotting assay; type: cell-based; settings: dose microM <=30, time 24.0 hrs
[21] = molecular target: T1, Protein cereblon/Cyclin-K/Cyclin-dependent kinase 12; assay: Protac activity at human CRBN/CDK12/CycK in human Bel-7402 cells assessed as degradation of GSPT1 upto 30 uM measured after 24 hrs by Western blotting assay; type: cell-based; settings: dose microM <=30, time 24.0 hrs
[22] = molecular target: T1, Protein cereblon/Cyclin-K/Cyclin-dependent kinase 12; assay: Protac activity at human CRBN/CDK12/CycK in human MDA-MB-231 cells assessed as downregulation of Mcl-1 level upto 30 uM measured after 24 hrs by Western blotting assay; type: cell-based; settings: dose microM <=30, time 24.0 hrs
[23] = molecular target: T1, Protein cereblon/Cyclin-K/Cyclin-dependent kinase 12; assay: Protac activity at human CRBN/CDK12/CycK in human Bel-7402 cells assessed as degradation of CDK12 at 1 to 3 uM for 24 hrs in presence of MG132 by Western blotting assay; type: cell-based; settings: dose 1-3 µM
[24] = molecular target: T1, Protein cereblon/Cyclin-K/Cyclin-dependent kinase 12; assay: Protac activity at human CRBN/CDK12/CycK in human Bel-7402 cells assessed as degradation of CycK at 1 to 3 uM for 24 hrs in presence of MG132 by Western blotting assay; type: cell-based; settings: dose 1-3 µM
[25] = molecular target: T1, Protein cereblon/Cyclin-K/Cyclin-dependent kinase 12; assay: Protac activity at human CRBN/CDK12/CycK in human MDA-MB-231 cells assessed as degradation of CDK12 at 1 to 3 uM for 24 hrs in presence of MG132 by Western blotting assay; type: cell-based; settings: dose 1-3 µM
[26] = molecular target: T1, Protein cereblon/Cyclin-K/Cyclin-dependent kinase 12; assay: Protac activity at human CRBN/CDK12/CycK in human MDA-MB-231 cells assessed as degradation of CycK a 1 to 3 uM for 24 hrs in presence of MG132 by Western blotting assay; type: cell-based; settings: dose 1-3 µM
[27] = molecular target: T1, Protein cereblon/Cyclin-K/Cyclin-dependent kinase 12; assay: Protac activity at human CRBN/CDK12/CycK in human MDA-MB-231 cells assessed as CDK12 mRNA expression measured after 6 hrs by RT-qPCR method; type: cell-based
[28] = molecular target: T1, Protein cereblon/Cyclin-K/Cyclin-dependent kinase 12; assay: Protac activity at human CRBN/CDK12/CycK in human MDA-MB-231 cells assessed as CycK mRNA expression measured after 6 hrs by RT-qPCR method; type: cell-based
MDA-MB-231 [29] = assay: Antiproliferative activity against human MDA-MB-231 cells at 1 uM for 10 days by SRB staining based clone formation assay relative to control; type: functional; settings: MDA-MB-231, 240 h, time 10 day
MDA-MB-231 [30] = assay: Antiproliferative activity against human MDA-MB-231 cells at 3 uM for 10 days by SRB staining based clone formation assay relative to control; type: functional; settings: MDA-MB-231, 240 h, time 10 day

## CC(C)n1cnc2c(NCc3nc4cc(F)c(NCCCCCCCCNC(=O)COc5cccc6c5C(=O)N(C5CCC(=O)NC5=O)C6=O)cc4[nH]3)nc(N3CCOCC3)nc21 (stereo unspecified)
CDK12/Cyclin K
  IC50: 645 nM
[1]
  Activity: Active
[2]
  DC50: 416 nM
[3]
  DC50: 412 nM
[4]
  DC50: 416 nM
[5]
  DC50: 412 nM
[6]
  Activity: inactive
[7]
  Activity: Active
[8]
  Activity: Active
[9]
  Activity: inactive
[10]
  Activity: Active
[11]
  Activity: Active
MDA-MB-231 [12]
  inhibition at 1 µM: 67.8%
MDA-MB-231 [13]
  inhibition at 3 µM: 99.2%
MDA-MB-231 [14]
  CI: 0.65
MDA-MB-231 [15]
  CI: 0.29
[16]
  Activity: inactive
[17]
  Activity: inactive
[18]
  Activity: inactive
[19]
  Activity: inactive
[20]
  Activity: inactive
[21]
  Activity: inactive
[22]
  Activity: inactive
[23]
  Activity: inactive
[24]
  Activity: inactive
[25]
  Activity: inactive
[26]
  Activity: inactive
[27]
  Activity: inactive
[28]
  Activity: inactive
MDA-MB-231 [29]
  inhibition at 1 µM: 1.05%
MDA-MB-231 [30]
  inhibition at 3 µM: 6.47%
